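Test compounds were applied to cells in 96-well plates for 48 hours at 5 doses. Abbreviation: GI50, concentration required for 50% inhibition of growth. TGI: concentration producing complete growth inhibition.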
Experiments:
Experiment in all cases: inhibition of tumour cell growth, NCI panel, 48 h
[1] = test system: HOP-62 NSCLC
[2] = test system: HL-60(TB) leukemia
[3] = test system: UACC-62 melanoma
[4] = test system: OVCAR-3 ovarian
[5] = test system: BT-549 breast
[6] = test system: EKVX NSCLC
[7] = test system: SF-295 CNS
[8] = test system: MOLT-4 leukemia
[9] = test system: SF-539 CNS
[10] = test system: CAKI-1 renal
[11] = test system: MDA-MB-435
[12] = test system: NCI/ADR-RES ovarian
[13] = test system: ACHN renal
[14] = test system: OVCAR-5 ovarian
[15] = test system: SW-620 colon
[16] = test system: MDA-MB-231 breast
[17] = test system: SN12C renal
[18] = test system: UACC-257 melanoma
[19] = test system: SNB-19 CNS
[20] = test system: HCT-116 colon
[21] = test system: SK-MEL-28 melanoma
[22] = test system: CCRF-CEM leukemia
[23] = test system: HOP-92 NSCLC
[24] = test system: T-47D breast
[25] = test system: DU-145 prostate
[26] = test system: HCC-2998 colon

Compound `COc1ccc(-c2nc3cc(C)ccc3n2CC(=O)N=Nc2c(O)[nH]c3ccc(Cl)cc23)cc1` has a TGI [1] of 5.97 µM, a GI50 [2] of 4.36 µM and a TGI [2] greater than 100 µM. The GI50 [3] was 1.58 µM, the TGI [3] was 3.4 µM and the GI50 [4] was 1.88 µM. The TGI [4] was 3.8 µM, the GI50 [5] was 1.97 µM and the TGI [5] was 4.66 µM. For the same compound, the GI50 [6] was 1.91 µM, the TGI [6] was 5.61 µM and the GI50 [7] was 2.49 µM. The TGI [7] was 8 µM, the GI50 [8] was 2.43 µM and the TGI [8] was greater than 100 µM. It also gave a GI50 [9] of 1.76 µM, a TGI [9] of 3.41 µM and a GI50 [10] of 2.35 µM. It also gave a TGI [10] of 24.6 µM, a GI50 [11] of 2.29 µM and a TGI [11] of 6.14 µM. For the same compound, the GI50 [12] was 2.48 µM, the TGI [12] was 7.16 µM and the GI50 [13] was 2.1 µM. It also gave a TGI [13] of 5.67 µM, a GI50 [14] of 2.63 µM and a TGI [14] of 10.1 µM. The GI50 [15] was 2.35 µM, the TGI [15] was 6.59 µM and the GI50 [16] was 1.96 µM. For the same compound, the TGI [16] was 4.8 µM, the GI50 [17] was 2 µM and the TGI [17] was 6.18 µM. For the same compound, the GI50 [18] was 2.1 µM, the TGI [18] was 4.99 µM and the GI50 [19] was 2.73 µM. For the same compound, the TGI [19] was 9.29 µM, the GI50 [20] was 1.83 µM and the TGI [20] was 4 µM. The GI50 [21] was 1.82 µM, the TGI [21] was 3.39 µM and the GI50 [22] was 3.07 µM. It also gave a TGI [22] of 60.2 µM, a GI50 [23] of 1.48 µM and a TGI [23] of 4.63 µM. For the same compound, the GI50 [24] was 2.73 µM, the TGI [24] was greater than 100 µM and the GI50 [25] was 3.18 µM. For the same compound, the TGI [25] was 16.2 µM, the GI50 [26] was 3.16 µM and the TGI [26] was greater than 100 µM.

Reference: PubChem BioAssay (NCI)
